Consider 1 compound from patent publication US9221811B2, “Chromone derivative having osteogenesis promoting effect” (Daiichi Sankyo Company, Limited, priority 2012, dated 2015).

This experiment has as its system female F344 rats. Nature of the experiment: Effect on bone density (oophorectomized rats, femur, DXA). It is filed as in vivo, rat. The following applies: 25 mg/kg orally once a day, six days a week, six weeks, Dunnett's test. Here is the method: Eight to 12 week old female F344 rats were purchased from Charles River Laboratories Japan, Inc. and used in the following experiment.
This test was conducted at N=8. Rats were anesthetized by the intraperitoneal administration of 40 mg/kg of Somnopentyl (purchased from Kyoritsu Seiyaku Corporation), followed by oophorectomy.
From the day after surgery, a control group received a 0.5% methyl cellulose solution (purchased from Wako Pure Chemical Industries, Ltd., Cat. No. 133-14255) alone, whereas another group received a suspension of the test compound in this solution (0.5% methyl cellulose solution), for the test.
The administration was performed orally once a day, six days a week. Six weeks after administration, the rats were euthanized by removal of whole blood from the lower abdominal aorta under Somnopentyl anesthesia, and the left and right femur was excised.
After removal of soft tissues, the bone density of the femur thus excised was measured (apparatus: DXA apparatus DCS-600R manufactured by Aloka Co., Ltd.). The bone density was assessed in the whole femur as well as in three equal sections of the whole femur, namely the proximal end, the shaft, and the distal end.
The Dunnett's test was used in certification.

Structures are written as SMILES.

Regarding `COCC(=O)N1CCC(c2oc3c(C)c(O)ccc3c(=O)c2C)CC1` [Example 11, 7-Hydroxy-2-[1-(methoxyacetyl)piperidin-4-yl]-3,8-dimethyl-4H-chromen-4-one], the “bone density of the femur compared with the control group” value was “significantly increased the bone density”.
